This note sets out measurements from PMC8151276, “An Integrated Approach toward NanoBRET Tracers for Analysis of GPCR Ligand Engagement” (Molecules, 2021).

Type in all cases: binding
One assay deals with T1, C5AR2 (Homo sapiens, UniProt Q9P296).
T1 construct: purchased Promega (in-house HiBiT-GPCR construct library, NanoBRET)
The assay can be described thus: NanoBRET screen HiBiT-C5AR2 in HEK293. How it is done:
(§1) Each tracer candidate was screened across the entire library of HiBiT-GPCR constructs using NanoBRET as the detection modality. As depicted in Figure 4A, the specificity of interactions was evaluated through decrease in BRET due to competitive displacement of a bound tracer by excess parental compound. Each tracer was analyzed for binding to each HiBiT-GPCR fusion in the absence and in the presence of competing parental compound. Briefly, HEK293 cells were transfected with HiBiT-GPCR constructs diluted into promoterless DNA to reduce expression and maximize translocation to the cell surface. Each tracer candidate was then screened at concentrations of 1 μM and 0.1 μM across cells expressing these fusions. Cells were treated for 1.5 h with tracer either alone or in the presence of 20 μM competing parental compound (i.e., control). BRET was measured upon addition of purified LgBiT and subsequent complementation with HiBiT genetically fused to a GPCR. The specificity of interactions was assessed through a decrease in BRET signal due to competitive displacement of the bound tracer. To further gauge the robustness of these interactions, the fold response over the control (i.e., BRETtracer/BRETcontrol) was calculated. We chose a 1.5-fold response, which translates to ≥7-fold signal over noise as the minimal threshold required to score an interaction as positive. […]. Below we highlight the screening results obtained for our exemplary fluorescent tracers based on Clozapine, Amitriptyline and AZD1283.
(§2) HiBiT-GPCR DNA constructs were diluted in 10 mM Tris pH 8 to a final concentration of 0.01 μg/μL, arrayed in 96-well plates and stored at −20 °C. For transfection, HEK293 cells were suspended in Opti-MEM (without phenol red) supplemented with 2% fetal bovine serum (Seradigm) and 100 units/mL penicillin–streptomycin (Gibco) at a final concentration of 220,000 cells/mL and dispensed into white 96-well plates at 90 μL/well. Subsequent transfections and screens were carried using an Agilent Bravo Automated Liquid Handling Platform. First, the 96-well HiBiT DNA arrays were diluted 25-fold in Opti-MEM (without serum or phenol red) to a final concentration of 0.0004 μg/μL and 20 μL of the diluted DNAs were transferred into new 96-well plates. Next, promoterless carrier DNA (1 μg/μL) was diluted 25-fold (0.04 μg/μL) and then dispensed into the diluted arrays at 20 μL/well. Following brief mixing, Viafect transfection reagent (Promega) diluted 16-fold into Opti-MEM was dispensed into the plates at 40 μL/well. After mixing by pipetting, plates were incubated for 10 min on the pipetting station deck. The DNA-transfection reagent complexes were then added to plates containing cells. To facilitate the screen, 10 μL of DNA-transfection reagent complexes were added in duplicates to the top 4 and bottom 4 rows, resulting in two identical 48-well arrays per plate. Plates with transfected cells were incubated for 18–20 h at 37 °C/5% CO2. A screen of each tracer across the entire library using two different concentrations requires duplicate plates of transfected cells. Depending on the number of tracers being screened, transfections can be scaled up using the same ratios. The next day, for each tracer, four 20× screening solutions in tracer dilution buffer (Promega) were prepared: two duplicates at final concentration of 20 μM and two duplicates at a final concentration of 2 μM. A competing unmodified compound was added to one of each duplicate at a final concentration of 400 μM. The four resulting solutions were diluted 4-fold in Opti-MEM without serum or phenol red to generate 5× solutions (5 µM and 0.5 µM tracer +/− 100 μM competing compound). To screen the library, a BioTek MultiFlo FX liquid dispenser was used to dispense 22.5 µL of tracer solution to the top 4 rows and 22.5 µL tracer + competing compound solution to the 4 bottom rows. Plates were briefly mixed on an orbital shaker and incubated for 1.5 h at room temperature. […]

In another assay the target is T2, CXCR1 (Homo sapiens, UniProt P25024).
T2 construct: purchased Promega (in-house HiBiT-GPCR construct library, NanoBRET)
T2 sequence (P25024 1-350): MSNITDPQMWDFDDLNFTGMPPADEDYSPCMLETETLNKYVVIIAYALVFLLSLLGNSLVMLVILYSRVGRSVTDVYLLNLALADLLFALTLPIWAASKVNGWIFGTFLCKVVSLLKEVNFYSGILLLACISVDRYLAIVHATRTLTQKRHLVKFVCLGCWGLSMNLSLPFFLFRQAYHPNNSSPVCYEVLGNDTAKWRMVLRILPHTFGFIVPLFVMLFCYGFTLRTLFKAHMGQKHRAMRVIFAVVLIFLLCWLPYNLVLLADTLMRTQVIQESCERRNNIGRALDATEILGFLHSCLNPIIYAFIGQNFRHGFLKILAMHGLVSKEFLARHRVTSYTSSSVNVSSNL
The assay can be described thus: NanoBRET screen HiBiT-CXCR1 in HEK293. How it is done: as §1, §2
Background: In BRET a luciferase serves as donor, and the signal depends on an acceptor being close.

Another assay concerns the target T3, CXCR2 (Homo sapiens, UniProt P25025).
T3 construct: purchased Promega (in-house HiBiT-GPCR construct library, NanoBRET)
T3 sequence (P25025 1-360): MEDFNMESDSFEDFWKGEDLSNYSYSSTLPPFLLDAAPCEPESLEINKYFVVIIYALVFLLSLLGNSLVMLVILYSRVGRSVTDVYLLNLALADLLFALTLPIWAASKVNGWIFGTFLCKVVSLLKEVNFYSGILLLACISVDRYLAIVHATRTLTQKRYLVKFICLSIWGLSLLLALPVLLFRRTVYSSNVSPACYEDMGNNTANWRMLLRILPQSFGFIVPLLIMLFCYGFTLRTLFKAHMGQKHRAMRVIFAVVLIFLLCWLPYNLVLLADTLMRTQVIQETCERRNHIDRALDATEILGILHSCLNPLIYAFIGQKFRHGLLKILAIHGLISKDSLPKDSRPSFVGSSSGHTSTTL
The assay can be described thus: NanoBRET screen HiBiT-CXCR2 in HEK293. How it is done:
as §1, §2

Another assay has as its target T4, GABBR1 (Homo sapiens, UniProt Q9UBS5).
T4 construct: purchased Promega (in-house HiBiT-GPCR construct library, NanoBRET)
The assay can be described thus: NanoBRET screen HiBiT-GABBR1 in HEK293. How it is done:
as §1, §2

The target in another assay is T5, SMO (Homo sapiens, UniProt Q99835).
T5 construct: purchased Promega (in-house HiBiT-GPCR construct library, NanoBRET)
In words: NanoBRET screen HiBiT-SMO in HEK293. How it is done: as §1, §2

In the next assay the target is T6, CXCR6 (Homo sapiens, UniProt O00574).
T6 construct: purchased Promega (in-house HiBiT-GPCR construct library, NanoBRET)
The assay can be described thus: NanoBRET screen HiBiT-CXCR6 in HEK293. As for the experimental part: as §1, §2

T4 sequence (Q9UBS5 15-961 limits assumed): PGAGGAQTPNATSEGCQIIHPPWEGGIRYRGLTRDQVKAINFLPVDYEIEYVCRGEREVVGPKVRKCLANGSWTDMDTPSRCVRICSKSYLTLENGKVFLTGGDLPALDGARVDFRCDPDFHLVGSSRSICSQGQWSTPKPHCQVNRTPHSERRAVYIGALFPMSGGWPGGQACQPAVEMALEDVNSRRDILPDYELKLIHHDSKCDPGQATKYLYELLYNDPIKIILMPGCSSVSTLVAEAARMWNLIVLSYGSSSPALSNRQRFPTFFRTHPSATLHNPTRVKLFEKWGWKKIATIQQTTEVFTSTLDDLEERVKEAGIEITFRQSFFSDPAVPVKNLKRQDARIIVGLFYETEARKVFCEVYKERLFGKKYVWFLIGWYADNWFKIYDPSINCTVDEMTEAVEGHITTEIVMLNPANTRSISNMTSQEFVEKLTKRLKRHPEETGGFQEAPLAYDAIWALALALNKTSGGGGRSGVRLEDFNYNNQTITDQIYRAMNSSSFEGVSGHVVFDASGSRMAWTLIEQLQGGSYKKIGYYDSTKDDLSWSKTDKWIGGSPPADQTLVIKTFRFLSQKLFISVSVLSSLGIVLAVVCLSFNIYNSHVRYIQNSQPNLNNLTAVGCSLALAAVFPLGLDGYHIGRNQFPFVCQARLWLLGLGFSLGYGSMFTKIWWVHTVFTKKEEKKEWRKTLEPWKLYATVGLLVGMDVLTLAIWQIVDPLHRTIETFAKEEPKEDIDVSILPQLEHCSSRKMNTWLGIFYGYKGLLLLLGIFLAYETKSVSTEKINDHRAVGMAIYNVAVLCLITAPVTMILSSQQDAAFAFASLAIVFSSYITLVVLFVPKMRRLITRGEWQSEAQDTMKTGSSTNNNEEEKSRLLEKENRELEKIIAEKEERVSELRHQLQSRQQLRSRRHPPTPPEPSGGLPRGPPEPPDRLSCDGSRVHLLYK
T5 sequence (Q99835 28-787): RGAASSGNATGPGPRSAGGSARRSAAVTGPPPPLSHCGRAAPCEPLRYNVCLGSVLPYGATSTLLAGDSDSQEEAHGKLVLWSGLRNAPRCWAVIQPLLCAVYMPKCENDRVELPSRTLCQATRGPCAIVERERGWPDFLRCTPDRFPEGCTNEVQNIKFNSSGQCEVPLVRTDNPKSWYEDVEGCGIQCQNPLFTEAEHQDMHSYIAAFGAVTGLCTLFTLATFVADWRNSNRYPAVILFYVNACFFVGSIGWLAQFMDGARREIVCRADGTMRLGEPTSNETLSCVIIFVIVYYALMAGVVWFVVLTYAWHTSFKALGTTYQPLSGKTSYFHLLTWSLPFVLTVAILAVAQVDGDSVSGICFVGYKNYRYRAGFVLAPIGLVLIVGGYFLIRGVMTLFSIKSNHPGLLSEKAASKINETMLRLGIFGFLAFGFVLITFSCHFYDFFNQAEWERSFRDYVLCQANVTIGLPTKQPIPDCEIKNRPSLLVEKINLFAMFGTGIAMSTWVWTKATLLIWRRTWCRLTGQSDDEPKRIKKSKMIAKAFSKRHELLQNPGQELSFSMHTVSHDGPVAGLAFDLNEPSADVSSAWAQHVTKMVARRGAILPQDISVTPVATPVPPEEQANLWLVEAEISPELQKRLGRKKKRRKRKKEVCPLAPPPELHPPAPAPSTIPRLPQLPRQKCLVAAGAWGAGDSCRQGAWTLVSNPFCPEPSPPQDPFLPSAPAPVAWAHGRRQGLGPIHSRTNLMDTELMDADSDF
T1 sequence (Q9P296 whole entry): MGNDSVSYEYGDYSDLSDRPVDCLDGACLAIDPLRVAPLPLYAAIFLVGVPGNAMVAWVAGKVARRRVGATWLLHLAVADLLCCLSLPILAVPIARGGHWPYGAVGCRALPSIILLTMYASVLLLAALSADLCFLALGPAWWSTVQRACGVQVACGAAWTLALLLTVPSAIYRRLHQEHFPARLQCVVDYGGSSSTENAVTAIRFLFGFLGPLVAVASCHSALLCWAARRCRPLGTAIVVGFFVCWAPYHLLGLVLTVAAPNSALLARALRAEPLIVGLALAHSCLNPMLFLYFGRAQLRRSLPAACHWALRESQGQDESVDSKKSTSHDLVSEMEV
T6 sequence (O00574 whole entry): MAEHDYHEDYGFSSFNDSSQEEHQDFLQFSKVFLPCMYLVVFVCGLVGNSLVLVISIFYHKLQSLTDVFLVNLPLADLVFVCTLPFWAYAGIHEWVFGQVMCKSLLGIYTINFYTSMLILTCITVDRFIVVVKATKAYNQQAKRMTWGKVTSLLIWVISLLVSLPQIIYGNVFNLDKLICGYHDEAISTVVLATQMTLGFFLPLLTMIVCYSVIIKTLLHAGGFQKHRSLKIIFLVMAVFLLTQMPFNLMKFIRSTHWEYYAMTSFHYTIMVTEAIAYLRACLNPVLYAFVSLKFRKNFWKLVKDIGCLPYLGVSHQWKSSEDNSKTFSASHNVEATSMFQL

Turning to `COc1ccc2[nH]c(-c3ccc(CNC(=O)CCOCCOCCOCCOCCNC(=O)CCc4ccc5n4[B-](F)(F)[N+]4=C(c6ccc[nH]6)C=CC4=C5)cc3)c(CCNC(C)=O)c2n1` [AzomelatoninICO9-2-NB590], the “NanoBRET Fold Response” value is given as 1.13 at C5AR2 (0.1μM tracer); 0.89 on C5AR2 (1μM tracer); 1.06 at CXCR1 (0.1μM tracer); 0.96 on CXCR1 (1μM tracer); 1.38 at CXCR2 (0.1μM tracer); 1.00 on CXCR2 (1μM tracer). Also, the “NanoBRET Fold Response” value on GABBR1 (0.1μM tracer) was found to be 0.66; on GABBR1 (1μM tracer) it was 0.57; on SMO (0.1μM tracer), 0.86; on SMO (1μM tracer), 1.25; at CXCR6 (0.1μM tracer) it was 0.98; on CXCR6 (1μM tracer), 1.16.

Turning to `CCCn1c(=O)c2[nH]c(-c3ccc(OCC(=O)NCCNC(=O)CCOCCNC(=O)c4ccc(CNC(=O)CCc5ccc6n5[B-](F)(F)[N+]5=C(c7ccc[nH]7)C=CC5=C6)cc4)cc3)nc2n(CCC)c1=O` [XAC-3-NB590], the “NanoBRET Fold Response” value came out at 1.02 at C5AR2 (C5AR2, tracer 0.1μM); 1.01 at C5AR2 (C5AR2, tracer 1μM); 1.05 at CXCR1 (CXCR1, tracer 0.1μM); 0.91 at CXCR1 (CXCR1, tracer 1μM); 1.22 on CXCR2 (CXCR2, tracer 0.1μM); 0.70 at CXCR2 (CXCR2, tracer 1μM). Further, the “NanoBRET Fold Response” value on GABBR1 (GABBR1, tracer 0.1μM) is recorded as 0.86; on GABBR1 (GABBR1, tracer 1μM), 1.00; at SMO (SMO, tracer 0.1μM) it was 1.01; at SMO (SMO, tracer 1μM), 1.05; at CXCR6 (CXCR6, tracer 0.1μM) it was 1.06; on CXCR6 (CXCR6, tracer 1μM), 1.09.

`COc1ccccc1N1CCN(CCCCN2C(=O)c3ccc(CNC(=O)CCOCCNC(=O)c4ccc(CNC(=O)CCc5ccc6n5[B-](F)(F)[N+]5=C(c7ccc[nH]7)C=CC5=C6)cc4)cc3C2=O)CC1` [NAN-190-3-NB590]: the “NanoBRET Fold Response” value at C5AR2 (C5AR2, tracer 0.1μM) worked out at 0.87; at C5AR2 (C5AR2, tracer 1μM), 1.07; at CXCR1 (CXCR1, tracer 0.1μM), 0.93; at CXCR1 (CXCR1, tracer 1μM), 0.83; at CXCR2 (CXCR2, tracer 0.1μM), 1.10; at CXCR2 (CXCR2, tracer 1μM) it was 0.86. Also, the “NanoBRET Fold Response” value at GABBR1 (GABBR1, tracer 0.1μM) amounted to 0.80; at GABBR1 (GABBR1, tracer 1μM), 1.07; at SMO (SMO, tracer 0.1μM), 0.88; on SMO (SMO, tracer 1μM), 0.97; on CXCR6 (CXCR6, tracer 0.1μM) it was 1.15; on CXCR6 (CXCR6, tracer 1μM), 0.93.

Regarding `O=C(CCc1ccc2n1[B-](F)(F)[N+]1=C(c3ccc[nH]3)C=CC1=C2)NCc1ccc(C(=O)NCCOCCOCCNCC(O)COc2cccc3ccccc23)cc1` (centres unmarked) [Propranolol-3-NB590], the “NanoBRET Fold Response” value at C5AR2 (C5AR2, 0.1μM) amounted to 1.00; at C5AR2 (C5AR2, 1μM) it was 1.01; on CXCR1 (CXCR1, 0.1μM), 1.02; at CXCR1 (CXCR1, 1μM) it was 1.00; on CXCR2 (CXCR2, 0.1μM), 1.07; on CXCR2 (CXCR2, 1μM), 1.03. Besides, the “NanoBRET Fold Response” value at GABBR1 (GABBR1, 0.1μM) was determined as 1.10; at GABBR1 (GABBR1, 1μM) it was 1.05; on SMO (SMO, 0.1μM) it was 1.16; on SMO (SMO, 1μM), 1.07; at CXCR6 (CXCR6, 0.1μM), 0.99; on CXCR6 (CXCR6, 1μM) it was 0.88.

Consider `COc1ccc2c(n1)c(CCNC(C)=O)cn2CCNC(=O)CCc1ccc2n1[B-](F)(F)[N+]1=C(c3ccc[nH]3)C=CC1=C2` [Azamelatonin-1-NB590], for which the “NanoBRET Fold Response” value at C5AR2 (0.1μM tracer) is reported as 0.90; on C5AR2 (1μM tracer) it was 0.93; on CXCR1 (0.1μM tracer) it was 0.88; on CXCR1 (1μM tracer), 1.15; at CXCR2 (0.1μM tracer) it was 0.97; on CXCR2 (1μM tracer) it was 0.98. For the same compound, the “NanoBRET Fold Response” value at GABBR1 (0.1μM tracer) stood at 1.44; on GABBR1 (1μM tracer), 1.44; on SMO (0.1μM tracer) it was 0.82; at SMO (1μM tracer), 1.37; at CXCR6 (0.1μM tracer), 1.07; on CXCR6 (1μM tracer), 0.89.

As to `O=C(CCOCCOCCOCCOCCNC(=O)CCc1ccc2n1[B-](F)(F)[N+]1=C(c3ccc[nH]3)C=CC1=C2)NCCCN1CCN(C2=Nc3ccccc3Oc3ccc(Cl)cc32)CC1` [Loxapine-a-2-NB590], the “NanoBRET Fold Response” value is reported as 0.95 on C5AR2 (C5AR2, tracer 0.1μM); 1.07 on C5AR2 (C5AR2, tracer 1μM); 1.02 on CXCR1 (CXCR1, tracer 0.1μM); 0.94 at CXCR1 (CXCR1, tracer 1μM); 1.06 at CXCR2 (CXCR2, tracer 0.1μM); 0.98 on CXCR2 (CXCR2, tracer 1μM). Also, the “NanoBRET Fold Response” value on GABBR1 (GABBR1, tracer 0.1μM) is 1.03; at GABBR1 (GABBR1, tracer 1μM), 0.92; at SMO (SMO, tracer 0.1μM) it was 0.98; at SMO (SMO, tracer 1μM) it was 1.15; on CXCR6 (CXCR6, tracer 0.1μM) it was 1.00; at CXCR6 (CXCR6, tracer 1μM) it was 1.01.

On to `COc1ccccc1N1CCN(CCCCN2C(=O)c3ccc(CNC(=O)CCOCCOCCOCCOCCNC(=O)CCc4ccc5n4[B-](F)(F)[N+]4=C(c6ccc[nH]6)C=CC4=C5)cc3C2=O)CC1` [NAN-190-2-NB590], for which the “NanoBRET Fold Response” value on C5AR2 (C5AR2, tracer 0.1μM) stood at 1.02; on CXCR1 (CXCR1, tracer 0.1μM), 0.97; on CXCR1 (CXCR1, tracer 1μM), 1.05; at CXCR2 (CXCR2, tracer 0.1μM) it was 1.08; at CXCR2 (CXCR2, tracer 1μM) it was 0.92; on GABBR1 (GABBR1, tracer 0.1μM) it was 0.88. For the same compound, the “NanoBRET Fold Response” value is listed as 0.93 at GABBR1 (GABBR1, tracer 1μM); 1.11 at SMO (SMO, tracer 0.1μM); 1.11 on SMO (SMO, tracer 1μM); 0.94 on CXCR6 (CXCR6, tracer 0.1μM); 1.02 on CXCR6 (CXCR6, tracer 1μM).
